Test results published in patent publication US7060733B2, “Methods for treating pancreatitis with curcumin compounds and inhibitors of reactive oxygen species” (The Regents of the University of California, priority 2002, dated 2006).
“Also recorded” adds a separate entry of the source.

Key:
trypsin = assay: Trypsin activation assay in pancreatic tissue homogenates; assay type: in vivo, rat; conditions: for inhibition of intrapancreatic trypsin activation / active trypsin versus pancreatitis without curcumin: rat
Method: Pancreatic tissue homogenates were prepared by methods known in the art. See Gukovskaya A S, et al. (2002); Gukovsky I, et al. (1998); Sandoval D, et al. (1996) Gastroenterology 111:1081–1091; and Vaquero E, et al. (2001), which are herein incorporated by reference. Active trypsin was measured in the pancreatic tissue homogenates by using a specific substrate, Boc-GLn-Ala-Arg-A MC (Bachem, Torrance, Calif.). See Kawabata S. et al. (1988) Eur. J. Biochem. 172:17–25, which is herein incorporated by reference. Cleavage of the substrate by trypsin releases 7-amino-4-methylcoumarin (AMC), which emits fluorescence at 440 nm with excitation at 380 nm. Trypsin activity in each sample was determined using a standard curve for purified trypsin.
Specifically, about ⅓ of rat pancreas was homogenized in 2 ml ice-cold buffer A (5 mM MES, pH 6.5; 1 mM MgSO4, 250 mM sucrose). Then 2 ml of buffer B (50 mM Tris, pH 8.0; 150 mM NaCl, 1 mM CaCl2, 0.1 mg/ml BSA) was mixed with 25 μl of the homogenate and kept on ice. Then 2 μl of 20 mM substrate solution (20 mM Boc-Gln-Ala-Arg-AMC.HCl in DMSO) was added to start the reaction. The sample was mixed well and incubated at 37° C. The reaction product was measured with a spectrofluorimeter for 20 minutes at ex=380 nm; em=440 nm.

p38 MAP kinase = p38 MAP kinase (Homo sapiens, UniProt Q16539); conditions: various cell types and tissues; cited from earlier work
Chain of p38 MAP kinase (Q16539 whole entry): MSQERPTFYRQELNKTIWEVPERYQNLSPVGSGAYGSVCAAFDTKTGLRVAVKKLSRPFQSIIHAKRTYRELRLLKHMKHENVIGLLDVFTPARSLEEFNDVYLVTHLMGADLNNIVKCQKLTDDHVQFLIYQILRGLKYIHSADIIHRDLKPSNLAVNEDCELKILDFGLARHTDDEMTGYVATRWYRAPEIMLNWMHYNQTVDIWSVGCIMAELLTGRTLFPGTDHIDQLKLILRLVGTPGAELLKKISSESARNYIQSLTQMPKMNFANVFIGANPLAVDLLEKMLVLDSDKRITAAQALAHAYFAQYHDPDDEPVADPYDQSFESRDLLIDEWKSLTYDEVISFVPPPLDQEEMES

COc1cc(/C=C/C(=O)CC(=O)/C=C/c2ccc(O)c(OC)c2)ccc1O [curcumin]
inhibition of intrapancreatic trypsin activation (trypsin; EtOH+CCK model): greater than 50%
inhibition of intrapancreatic trypsin activation (trypsin; cerulein model): greater than 70%
active trypsin versus pancreatitis without curcumin (trypsin; cerulein pancreatitis): significantly lower; also recorded: significantly inhibited
basal level of active pancreatic trypsin (trypsin; ethanol-fed rats, EtOH+CCK model, basal): unaffected
active trypsin versus pancreatitis without curcumin (trypsin; ethanol/CCK pancreatitis): significantly lower; also recorded: significantly inhibited
effect on p38 MAP kinase (p38 MAP kinase): no effect
